Reference: patent US7279497B2, “Benzopyran derivatives substituted with secondary amines including imidazole, their preparation and pharmaceutical compositions containing them” (Korea Research Institute of Chemical Technology, priority 2002, dated 2007)

Experiments:
[1] = test system: HUVECs (Human umbilical vein endothelial cells); assay: Inhibitory effects on HUVEC tube formation; assay type: cell-based;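 further: from minus no inhibition up to plus-plus-plus complete inhibition versus vehicle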
Method in brief: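 HUVECs within passage 5 were plated on bFGF-reduced polymerized Matrigel and incubated with or without compound. Tube formation assessed as changes in cell morphology by phase-contrast microscopy and photography.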

SPF SD rats = settings: rat, in vivo, po;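 further: Six-week-old animals, two per group, followed across an observation period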
[2] = test system: Chick chorioallantoic membrane (CAM); assay: CAM (chorioallantoic membrane) assay; assay type: in vivo
Description: Chick chorioallantoic membrane (CAM) assays were performed to measure the inhibitory effects on angiogenesis in vivo of the compounds of the formula 1.
Fertilized chick eggs were incubated under constant humidified (90%) egg breeder at 37° C. On the third day of incubation, about 2 mL of egg albumin was aspirated by an 18-gauge hypodermic needle through the small hole drilled at the narrow end of the eggs, to detach the developing CAM from the shell. And the shell covering the air sac was punched out and removed by forcep, and the shell membrane on the floor of the air sac was peeled away. After more incubation of two more days, sample-loaded thermanox coverslips were air-dried, and applied to the CAM surface to test the angiogenic inhibition by the test compounds. Three days later, 1 to 2 mL of 10% fat emulsion (Intralipose) was injected into the chorioallantoic and observed avascular zone under a dissecting microscope. The negative control was implanted only thermanox coverslip, while the positive control was treated with retinoic acid (1 μg/egg). […] Independent experiment was repeated three times and at least more than 20 eggs in each experiment were used.

ischemic hearts = assay: Cardioprotective activity in ischemic heart model of anesthetized rats; settings: Rat in vivo, 0.3 mg/kg i.v.
Description: In order to determine whether the compounds of formula 1 are protective for ischemic hearts, experiments determining the anti-ischemic effects of the compounds on rats were conducted as follows. Male rats (350-450 g, obtained from the Experimental Animal Team of the Korea Research Institute of Chemical Technology) were anesthetized by the intraperitoneal injection of pentobarbital at a dose of 75 mg/kg. After trachetomy, the rats were rendered to respire artificially at a rate of 60/min with a stroke volume of 10 ml/kg. Cannulars were inserted into the fermoral vein and the fermoral artery and used for drug administration and blood pressure measurement, respectively. In the ischemic myocardial injury models, the body temperature has an important influence on the results. To avoid the change in the body temperature, a body temperature measuring probe was inserted into the rectum of each rat and the body temperature was constantly kept at 37° C. with the aid of a homeothermic blanket control unit. Afterwards, during testing, a continuous measurement was made of the mean arterial blood pressures and heart rates from the rats. For the measurement of the blood pressure, a pressure transducer (Statham P23XL, Grass Ins., MA, U.S.A.) was used. The heart rate was measured by a tachometer (ECG/RATE Coupler, Hugo Sachs Electronic, German) identified as Biotachometer. In addition, all of the changes occurring were continuously recorded through the Gould 2000 chart recorder ([…] Linearcorder W R 3310, Hugo Sachs Electronic). The left coronary artery was occluded according to the Selye H. method as follows. The rats underwent a left thoracotomy operation for partial opening of the chest and the right-side chest was pressurized by the middle finger of the left hand to push the heart out. Immediately after the left anterior descending coronary artery hereinafter referred to as (LAD) was carefully stitched using a suture needle with 5-0 silk ligature, the heart was then repositioned in the thoracic cavity while both ends of the ligature were situated outside. The opposite ligature ends were passed through a PE tube (PE100, 2.5 cm) and allowed to stand loose for 20 min for stabilization. Via the cannula inserted into the femoral vein, vehicles or drugs were administered into the rats which were rendered to stand for 30 min in order to sufficiently elicit the efficacies of the drugs. […] From the images input into the computer, the area of the normal blood stream tissue region which appeared blue in a computer monitor and the area which appeared colorless were measured. The percentage of the colorless area to the total area of each slice was calculated and multiplied by the weight of each slice to determine the area at risk (AAR) of each slice. […]

In the case of `COC(OC)[C@@]1(C)Oc2ccc([N+](=O)[O-])cc2[C@@H](N(Cc2ncc[nH]2)c2ccc(Cl)cc2)[C@@H]1O` [Example 1, (2S,3S,4R)-3,4-dihydro-2-dimethoxymethyl-3-hydroxy-2-methyl-6-nitro-4-[N-(4-chlorophenyl)-N-(1H-imidazol-2-ylmethyl)amino]-2H-1-benzopyran], the Tube formation ([1]; 10 μM) is reported as “+”, the Tube formation ([1]; 50 μM) is reported as “+” and the Tube formation ([1]; 100 μM) is reported as “++”. The “clinical symptoms, body weight and mortality” value (SPF SD rats) was “no significant changes”, the “% Inhibition (positive eggs)” value ([2]; 0.5 μM/egg) was 62% and the “% Inhibition (positive eggs)” value ([2]; 1.5 μg/egg) was 84%. The “AAR/LV (%)” value (ischemic hearts) was 33.4% and the “IZ/AAR (%)” value (ischemic hearts) was 41.2%.
